{"source": "patent US4477458A", "about": "“Thiazolidine derivatives and their mucolytic compositions and methods” (Camillo Corvi S.p.A., priority 1981, dated 1984)", "key": {"[1]": {"tested_on": "mucus production of rabbit", "assay": "Activity on mucus production of rabbit (method of R. Scuri and Coll.)", "assay_type": "in vivo", "conditions": "for Mucoproduction at hours 0 - 4: mean ± E.S.; for change in vivo at 400 mg/kg / change in vivo at 600 mg/kg: po"}, "gastric mucin of the pig": {"tested_on": "gastric mucin of the pig", "assay": "\"in vitro\" viscosity of gastric mucin of the pig (Contraves Rehomat microviscosimeter)", "conditions": "conc. 2 %; for Viscosity of gastric mucin: 0.1 ml; for Viscosity of gastric mucin, Var. %: vs Mucin + H2O", "method": "The pharmacological activity was measured by studying the effect on the compound (CO/1177) on: (c) \"in vitro\" viscosity of gastric mucin of the pig by using, for the viscometer measures, a Contraves Rehomat microviscosimeter at 15 automatic scanning speeds."}, "[2]": {"conditions": "Oryctolagus cuniculus, iv, 10 mg/kg i.v., 0-4 h vs -4-0 h, read-out: Mucoproduction Var. %"}, "[3]": {"conditions": "Oryctolagus cuniculus, 400 mg/kg os, 0-4 h vs -4-0 h, read-out: Mucoproduction Var. %"}, "[4]": {"conditions": "Oryctolagus cuniculus, 600 mg/kg os, 0-4 h vs -4-0 h, read-out: Mucoproduction Var. %"}}, "note": "Where a name gives a salt, the structure may show the parent alone."}
{"smiles": "CCCC1SCCN1C(=O)c1ccccc1C(=O)O", "note": "(stereo not drawn) [CO/1226, 2-[(2-propyl)-1,3-thiazolidin-3-yl]-carbonyl-benzoic acid (Na salt)]", "values": [{"measurement": "Mucoproduction at hours 0 - 4", "setting": "[1]; 10 mg/kg i.v.", "result": "29.730 ± 4.510", "unit": "mg/h"}, {"measurement": "change in vivo at 10 mg/kg", "setting": "[1]; [2]", "result": 26.9, "unit": "%"}]}
{"smiles": "CN(Cc1cc(Br)cc(Br)c1N)C1CCCCC1", "note": "[Bromexine]", "values": [{"measurement": "Mucoproduction at hours 0 - 4", "setting": "[1]; 400 mg/kg os", "result": "27.414 ± 1.071", "unit": "mg/h"}, {"measurement": "Mucoproduction at hours 0 - 4", "setting": "[1]; 600 mg/kg os", "result": "34.440 ± 1.446", "unit": "mg/h"}, {"measurement": "change in vivo at 400 mg/kg", "setting": "[1]; [3]", "result": 31.3, "unit": "%"}, {"measurement": "change in vivo at 600 mg/kg", "setting": "[1]; [4]", "result": 40.6, "unit": "%"}]}
{"smiles": "CC(=O)N[C@@H](CS)C(=O)O", "note": "[N--Acetylcysteine, reference compound]", "values": [{"measurement": "Viscosity of gastric mucin", "setting": "gastric mucin of the pig; speed 17.4 g/min", "result": 25.64, "unit": "cps"}, {"measurement": "Viscosity of gastric mucin", "setting": "gastric mucin of the pig; speed 25 g/min", "result": 25.20, "unit": "cps"}, {"measurement": "Viscosity of gastric mucin", "setting": "gastric mucin of the pig; speed 33.6 g/min", "result": 24.30, "unit": "cps"}, {"measurement": "Viscosity of gastric mucin", "setting": "gastric mucin of the pig; speed 44.3 g/min", "result": 23.32, "unit": "cps"}, {"measurement": "Viscosity of gastric mucin", "setting": "gastric mucin of the pig; speed 56.1 g/min", "result": 23.77, "unit": "cps"}, {"measurement": "Viscosity of gastric mucin", "setting": "gastric mucin of the pig; speed 77.9 g/min", "result": 20.30, "unit": "cps"}, {"measurement": "Viscosity of gastric mucin", "setting": "gastric mucin of the pig; speed 113.2 g/min", "result": 19.41, "unit": "cps"}, {"measurement": "Viscosity of gastric mucin", "setting": "gastric mucin of the pig; speed 152 g/min", "result": 17.94, "unit": "cps"}, {"measurement": "Viscosity of gastric mucin", "setting": "gastric mucin of the pig; speed 200 g/min", "result": 16.19, "unit": "cps"}, {"measurement": "Viscosity of gastric mucin", "setting": "gastric mucin of the pig; speed 266.8 g/min", "result": 14.52, "unit": "cps"}, {"measurement": "Viscosity of gastric mucin", "setting": "gastric mucin of the pig; speed 352 g/min", "result": 13.70, "unit": "cps"}, {"measurement": "Viscosity of gastric mucin, Var. %", "setting": "gastric mucin of the pig; speed 17.4 g/min", "result": -11.9, "unit": "%"}, {"measurement": "Viscosity of gastric mucin, Var. %", "setting": "gastric mucin of the pig; speed 25 g/min", "result": -8.1, "unit": "%"}, {"measurement": "Viscosity of gastric mucin, Var. %", "setting": "gastric mucin of the pig; speed 44.3 g/min", "result": -12.4, "unit": "%"}, {"measurement": "Viscosity of gastric mucin, Var. %", "setting": "gastric mucin of the pig; speed 56.1 g/min", "result": -8.1, "unit": "%"}, {"measurement": "Viscosity of gastric mucin, Var. %", "setting": "gastric mucin of the pig; speed 77.9 g/min", "result": -11.1, "unit": "%"}, {"measurement": "Viscosity of gastric mucin, Var. %", "setting": "gastric mucin of the pig; speed 113.2 g/min", "result": -10.1, "unit": "%"}, {"measurement": "Viscosity of gastric mucin, Var. %", "setting": "gastric mucin of the pig; speed 152 g/min", "result": -8, "unit": "%"}, {"measurement": "Viscosity of gastric mucin, Var. %", "setting": "gastric mucin of the pig; speed 200 g/min", "result": -11.1, "unit": "%"}, {"measurement": "Viscosity of gastric mucin, Var. %", "setting": "gastric mucin of the pig; speed 266.8 g/min", "result": -12.1, "unit": "%"}, {"measurement": "Viscosity of gastric mucin, Var. %", "setting": "gastric mucin of the pig; speed 352 g/min", "result": -8.1, "unit": "%"}, {"measurement": "Mucoproduction at hours 0 - 4", "setting": "[1]; 5 mg/kg i.v.", "result": "29.058 ± 0.946", "unit": "mg/h"}, {"measurement": "Mucoproduction at hours 0 - 4", "setting": "[1]; 10 mg/kg i.v.", "result": "30.988 ± 1.078", "unit": "mg/h"}, {"measurement": "Mucoproduction at hours 0 - 4", "setting": "[1]; 400 mg/kg os", "result": "22.713 ± 0.947", "unit": "mg/h"}, {"measurement": "Mucoproduction at hours 0 - 4", "setting": "[1]; 600 mg/kg os", "result": "32.512 ± 1.365", "unit": "mg/h"}, {"measurement": "change in vivo at 5 mg/kg", "setting": "[1]; Oryctolagus cuniculus, iv, 5 mg/kg i.v., 0-4 h vs -4-0 h, read-out: Mucoproduction Var. %", "result": 29.2, "unit": "%"}, {"measurement": "change in vivo at 10 mg/kg", "setting": "[1]; [2]", "result": 49.8, "unit": "%"}, {"measurement": "change in vivo at 400 mg/kg", "setting": "[1]; [3]", "result": 4.7, "unit": "%"}, {"measurement": "change in vivo at 600 mg/kg", "setting": "[1]; [4]", "result": 39.4, "unit": "%"}]}
{"smiles": "N[C@@H](CSCC(=O)O)C(=O)O", "note": "[S--Carboxymethylcysteine]", "values": [{"measurement": "Mucoproduction at hours 0 - 4", "setting": "[1]; 400 mg/kg os", "result": "35.339 ± 1.376", "unit": "mg/h"}, {"measurement": "Mucoproduction at hours 0 - 4", "setting": "[1]; 600 mg/kg os", "result": "32.120 ± 1.630", "unit": "mg/h"}, {"measurement": "change in vivo at 400 mg/kg", "setting": "[1]; [3]", "result": 31.2, "unit": "%"}, {"measurement": "change in vivo at 600 mg/kg", "setting": "[1]; [4]", "result": 34.2, "unit": "%"}]}
